In paper PMC12169104, “Towards the development of supramolecular self-associating amphiphiles as antibiofilm agents against Pseudomonas aeruginosa and Candida albicans biofilms” (Journal of Materials Chemistry. B, 2025):
Read-outs that look alike come from different tables or passages of the source.

Experiments:
[1] = Protein binding in human plasma by equilibrium dialysis; format: in vitro ADME
Description: (§1) Section S5: In vitro and in vivo studies
(§2) These studies were performed by Contract Research Organisation (CRO) Pharmaron. The methodology provided within the ESI is published within the express permission of this organisation.
(§3) The percentage of a compound recovered during the analysis process should be 100 %; any deviation from this value indicates experimental limitations such as unintended potential non-specific binding events to experimental equipment, solubility issues, etc.
In vitro Absorption, Distribution and Metabolism studies methods:
Protein Binding measurements in human plasma by using equilibrium dialysis:
The fraction unbound in human plasma (P-KB, Ltd People’s hospital of Shandong) was measured using 96-well Equilibrium Dialysis Plate (HTDialysis LLC, Gales Ferry, CT). Human plasma containing 5 µM test compound was dialysed against dialysis buffer (PBS, pH 7.4) with initial samples taken to allow for assessment of plasma stability and recovery before the plate was incubated for 6 hours at 37°C at 5%
CO2. Samples were removed at 6 hours, and all samples were matrix matched and quenched with acetonitrile containing internal standard. Samples were centrifuged at 3,220g for 30 minutes to precipitate protein and enable sampling of supernatant prior to appropr iate dilution for liquid chromatography mass -spectrometry (LC -MS/MS) analysis.
Samples were analysed using a Shimadzu Nexera LC Binary Gradient LC -30AD (Shimadzu Inc, Kyoto), coupled to a Sciex 6500+ (AB Inc., Illinois). Separation was achieved using a XSelect HSS T3 (2.5µm, 2.1 x 50 mm) (Waters Ltd., Wilmslow) column at a temperature of 40°C and a binary mobile phase gradient at a flow rate of 0.8 mL/min. Initial LC conditions comprised of 95% solvent A (0.1% formic acid in water), 5% solvent B (0.1% formic acid in acetonitrile); this was ramped to 98% B at 0.5 min, held for 0.4 min and then immediately returned to initial conditions. Sample analysis was by electrospray ionisation in combined with multiple reaction monitoring in positive ionisation mode. The ionisation […]

[2] = Metabolic stability in liver microsomes; format: in vitro ADME, mouse
Description: as §1, §2, §3
(§4) In vitro Absorption, Distribution and Metabolism studies methods: […]
(§5) The ionisation
(§6) Kinetic Solubility Determination in PBS pH 7.4:
(§7) The stock solutions of test and control compounds were prepared in DMSO at 10 mM. From this a 300 µM solution was prepared in duplicate in 100 mM Phosphate Buffered Saline (PBS, pH 7.4 ± 0.1). These solutions were then shaken at 1100rpm for 2 hours at 25°C. […]
(§8) Metabolic Stability in Rat, Mouse and Human Liver Microsomes :
(§9) The metabolic stability of compounds at a concentration of 1 µM, in rat, mouse and human liver microsomes (BD Gentest, Franklin Lakes NJ) was measured following incubation with hepatic microsomes (0.5 mg of protein / mL) in the presence and absence of cofa ctor (NADPH) at 37 °C.
(§10) Aliquots of each incubation were removed at 0.5, 5, 15, 30 and 60 minutes. The reaction was stopped by the addition of cold acetonitrile containing analytical internal standard (IS). […]

[3] = Bi-directional permeability in Caco-2 cell line; format: in vitro ADME; conditions: human; for recovery at 2 h, 5 µM: Caco-2, pH 7.4, SSA recovered from the assay after 2 hours
Description: Bi-directional Permeability in Caco-2 Cell Line:
The bi-directional permeability in Caco-2 cell lines was determined by seeding cells onto an HTS Transwell plate. Cells were cultivated for 14-18 days in a cell culture incubator at 37°C, 5% CO2, 95% relative humidity. Cell culture medium was replaced every other day. To assess monolayer integrity the transepithelial electrical resistance (TEER) across the monolayer was measured using Millicell Epithelial volt-ohm meter prior to assay and Lucifer yellow (LY) fluorescence measurement post- […]
Test compound was prepared in DMSO and diluted in Hank’s Balanced Saline Solution (HBSS, pH 7.4) to a final concentration of 5 µM. Compound was added to the donor compartment of the transwell plate for both apical to basolateral (A>B) and basolateral to apical (B>A) measurements, with blank HBSS being added to the receiver compartment. The transwell plate was then incubated at 37°C, 5% […]
Samples were shaken at T=0 and T=2 hours to determine the concentration of initial donor sample, and the concentration of receiver and donor wells post-incubation, respectively. The samples were quenched with solvent containing internal standard (IS). The supernatant was mixed with an appropriate volume of ultra-pure water before LC-MS/MS analysis. […]
coupled to a Sciex 5500+ (AB Inc., Illinois). Separation of compounds was achieved using an XSelect HSS T3 XP (2.5µm,2.1x50mm) (Waters Ltd., Wilmslow) column at a temperature of 40°C. A binary mobile phase gradient at a flow rate of 0.7 mL/min was used. Initial LC conditions comprised of 95% solvent A (0.1% formic acid in water) and 5% solvent B (0.1% formic acid in acetonitrile). This was ramped to 95% solvent B at 1.2 minutes, held for 0.4 minutes and then immediately returned to initial conditions. Sample analysis was by electrospray ionisation combined with multiple reaction monitoring in positive ion mode. The ionspray voltage was 5500V.

[4] = Metabolic stability in liver microsomes; format: in vitro ADME, rat
Description: as §1, §2, §3, §4, §5, §6, §7, §8, §9, §10

O=C(O)CNc1c(Nc2ccc(C(F)(F)F)cc2)c(=O)c1=O [SSA 5]
% Stability ([1]; human plasma, 6 hours): 99.5% | recovery at 6 h, 5 µM ([1]; human, plasma, pH 7.4, SSA recovered from the assay after 6 hours): 102% | fraction unbound at 6 h, 5 µM ([1]; pH 7.4, human plasma proteins, 5 µM, 6 hours incubation at 37 °C, read-out: % Bound (converted)): 0.076 | half-life at 1 µM ([2]; liver microsomes, mouse microsomes, 1 µM, read-out: In vitro T1/2): > 3.08 h | Hepatic Extraction Ratio (ER) ([2]; mouse): < 0.26 | efflux ratio at 2 h, 5 µM ([3]; Caco-2, pH 7.4): > 73.9 | recovery at 2 h, 5 µM ([3]; read-out: % Recovery (A-B)): < 98.4% | recovery at 2 h, 5 µM ([3]; read-out: % Recovery (B-A)): 82.6% | Papp A→B at 2 h, 5 µM ([3]; Caco-2, pH 7.4, apical to basolateral, 5 µM, 2 hours): < 0.6 nm/s | Papp B→A at 2 h, 5 µM ([3]; Caco-2, pH 7.4, basolateral to apical, 5 µM, 2 hours): 42.4 nm/s | half-life at 1 µM ([4]; liver microsomes, rat microsomes, 1 µM, read-out: In vitro T1/2): > 3.08 h | Hepatic Extraction Ratio (ER) ([4]; rat): < 0.21
